In US20220396569A1 (Carmot Therapeutics, Inc., priority 2021, published 2022):

Target: T1, human GLP-1 receptor (Homo sapiens, UniProt P43220)
T1 construct: expressed in transfected cells
Test: GLP-1R cAMP Assay (HitHunter cAMP accumulation)
Type: cell-based
Conditions: cAMP accumulation, CHO cells stably overexpressing human GLP-1 receptor, 30 min treatment; read-out: EC50
Protocol: cAMP accumulation was measured in Chinese hamster ovary (CHO) cells stably overexpressing the human GLP-1 receptor using the HitHunter cAMP Assay for Small Molecules Kit (Eurofins). Briefly, cells were grown in Ham's F12 Nutrient Mix with 10% FBS, and lifted with Cell Dissociation Buffer, Enzyme free, PBS based (ThermoFisher). Cells were pelleted, and resuspended in Hank's buffered saline solution with 10 mM HEPES, and 625 μM 3-isobutyl-1-methylxanthine. The anti-cAMP antibody reagent was then added to cells at a 1:2 ratio and 5 μL of mixture was seeded in 384-well small volume white assay plates, at 10,000 cells/well. Cells were then treated with 50 nL compound using an ECHO 550 acoustic dispenser (Labcyte) in a 20-point dose response format in triplicate for 30 min. Cells were then lysed, and detection reagents added according to the manufacturer's protocol. After overnight incubation, luminescence was measured using a Perkin Elmer Envision plate reader. Dose response curves were analyzed using GraphPad Prism 9.0. […]

T1 sequence (P43220 24-463): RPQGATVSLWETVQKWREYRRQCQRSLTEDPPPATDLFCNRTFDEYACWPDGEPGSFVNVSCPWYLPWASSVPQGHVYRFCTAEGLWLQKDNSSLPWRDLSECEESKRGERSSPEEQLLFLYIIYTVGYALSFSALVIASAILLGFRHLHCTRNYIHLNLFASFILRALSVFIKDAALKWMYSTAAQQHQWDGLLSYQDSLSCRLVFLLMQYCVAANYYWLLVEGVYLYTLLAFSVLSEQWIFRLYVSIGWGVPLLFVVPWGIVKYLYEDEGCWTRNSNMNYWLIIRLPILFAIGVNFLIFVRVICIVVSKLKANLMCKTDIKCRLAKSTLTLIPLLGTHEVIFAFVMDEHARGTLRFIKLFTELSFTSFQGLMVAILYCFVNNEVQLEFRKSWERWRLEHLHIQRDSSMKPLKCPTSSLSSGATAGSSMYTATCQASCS

| Structure (SMILES) | EC50 [nM] |
| --- | --- |
| O=C(O)c1ccc2nc(CN3CCC(c4cc(COc5ccc(Cl)cc5F)ccn4)C3)n(Cc3ncco3)c2c1 (stereo not drawn) [Compound 398, 2-[(3-{4-[(4-chloro-2-fluorophenoxy)methyl]pyridin-2-yl}pyrrolidin-1-yl)methyl]-1-[(1,3-oxazol-2-yl)methyl]-1H-1,3-benzodiazole-6-carboxylic acid] | < 50 |
| O=C(O)c1ccc2nc(CN3CCC(c4ccnc(COc5ccc(Cl)cc5Cl)c4)C3)n(C[C@@H]3CCO3)c2c1 (stereo partly drawn) [Compound 399] | < 50 |
| O=C(O)c1ccc2nc(CN3CC=C(c4cccc(COc5ccc(Cl)cc5Cl)c4)C3)n(C[C@@H]3CCO3)c2c1 [Compound 401, 2-[(3-{3-[(2,4-dichlorophenoxy)methyl]phenyl}-2,5-dihydro-1H-pyrrol-1-yl)methyl]-1-{[(2S)-oxetan-2-yl]methyl}-1H-1,3-benzodiazole-6-carboxylic acid] | < 50 |
| O=C(O)c1ccc2nc(CN3CC=C(c4ccnc(COc5ccc(Cl)cc5Cl)c4)C3)n(C[C@@H]3CCO3)c2c1 [Compound 402, 2-[(3-{2-[(2,4-dichlorophenoxy)methyl]pyridin-4-yl}-2,5-dihydro-1H-pyrrol-1-yl)methyl]-1-{[(2S)-oxetan-2-yl]methyl}-1H-1,3-benzodiazole-6-carboxylic acid] | < 50 |
| O=C(O)c1ccc2nc(CN3CC=C(c4ccnc(COc5ccc(Cl)cc5F)c4)C3)n(C[C@@H]3CCO3)c2c1 [Compound 403, 2-[(3-{2-[(4-chloro-2-fluorophenoxy)methyl]pyridin-4-yl}-2,5-dihydro-1H-pyrrol-1-yl)methyl]-1-{[(2S)-oxetan-2-yl]methyl}-1H-1,3-benzodiazole-6-carboxylic acid] | < 50 |
| O=C(O)c1ccc2nc(CN3CC=C(c4ccnc(COc5ccc(Cl)cc5F)c4)C3)n(Cc3ncco3)c2c1 [Compound 404, 2-[(3-{2-[(4-chloro-2-fluorophenoxy)methyl]pyridin-4-yl}-2,5-dihydro-1H-pyrrol-1-yl)methyl]-1-[(1,3-oxazol-2-yl)methyl]-1H-1,3-benzodiazole-6-carboxylic acid] | < 50 |
| O=C(O)c1ccc2nc(CN3CCC(c4ccc(F)c(COc5ccc(Cl)cc5F)n4)C3)n(C[C@@H]3CCO3)c2c1 (stereo partly drawn) [Compound 409, 2-[(3-{6-[(4-chloro-2-fluorophenoxy)methyl]-5-fluoropyridin-2-yl}pyrrolidin-1-yl)methyl]-1-{[(2S)-oxetan-2-yl]methyl}-1H-1,3-benzodiazole-6-carboxylic acid] | < 50 |
| N#Cc1ccc(OCc2cccc([C@@H]3CCN(Cc4nc5ccc(C(=O)O)cc5n4C[C@@H]4CCO4)C3)c2)c(F)c1 [Compound 414, 2-{[(3S)-3-{3-[(4-cyano-2-fluorophenoxy)methyl]phenyl}pyrrolidin-1-yl]methyl}-1-{[(2S)-oxetan-2-yl]methyl}-1H-1,3-benzodiazole-6-carboxylic acid] | < 50 |
| N#Cc1ccc(OCc2cccc([C@H]3CCN(Cc4nc5ccc(C(=O)O)cc5n4C[C@@H]4CCO4)C3)c2)c(F)c1 [Compound 415, 2-{[(3R)-3-{3-[(4-cyano-2-fluorophenoxy)methyl]phenyl}pyrrolidin-1-yl]methyl}-1-{[(2S)-oxetan-2-yl]methyl}-1H-1,3-benzodiazole-6-carboxylic acid] | 50 to 500 |
| O=C(O)c1ccc2nc(CN3CC=C(c4cc(COc5ccc(Cl)cc5F)ccc4F)C3)n(C[C@@H]3CCO3)c2c1 [Compound 417, 2-[(3-{5-[(4-chloro-2-fluorophenoxy)methyl]-2-fluorophenyl}-2,5-dihydro-1H-pyrrol-1-yl)methyl]-1-{[(2S)-oxetan-2-yl]methyl}-1H-1,3-benzodiazole-6-carboxylic acid] | < 50 |
| O=C(O)c1ccc2nc(CN3CC=C(c4cc(F)cc(COc5ccc(Cl)cc5F)c4)C3)n(C[C@@H]3CCO3)c2c1 [Compound 418, 2-[(3-{3-[(4-chloro-2-fluorophenoxy)methyl]-5-fluorophenyl}-2,5-dihydro-1H-pyrrol-1-yl)methyl]-1-{[(2S)-oxetan-2-yl]methyl}-1H-1,3-benzodiazole-6-carboxylic acid] | < 50 |
| O=C(O)c1ccc2nc(CN3CCC(c4cc(COc5ccc(Cl)cc5F)ccc4F)C3)n(C[C@@H]3CCO3)c2c1 (stereo partly drawn) [Compound 419, 2-[(3-{5-[(4-chloro-2-fluorophenoxy)methyl]-2-fluorophenyl}pyrrolidin-1-yl)methyl]-1-{[(2S)-oxetan-2-yl]methyl}-1H-1,3-benzodiazole-6-carboxylic acid] | < 50 |
| O=C(O)c1ccc2nc(CN3CCC(c4cc(F)cc(COc5ccc(Cl)cc5F)c4)C3)n(C[C@@H]3CCO3)c2c1 (stereo partly drawn) [Compound 420, 2-[(3-{3-[(4-chloro-2-fluorophenoxy)methyl]-5-fluorophenyl}pyrrolidin-1-yl)methyl]-1-{[(2S)-oxetan-2-yl]methyl}-1H-1,3-benzodiazole-6-carboxylic acid] | < 50 |

Now from value to compound:

| EC50 [nM] | Structure (SMILES) |
| --- | --- |
| < 50 | N#Cc1ccc(OCc2cccc(C3=CCN(Cc4nc5ccc(C(=O)O)cc5n4C[C@@H]4CCO4)C3)c2)c(F)c1 [Compound 400, 2-[(3-{3-[(4-cyano-2-fluorophenoxy)methyl]phenyl}-2,5-dihydro-1H-pyrrol-1-yl)methyl]-1-{[(2S)-oxetan-2-yl]methyl}-1H-1,3-benzodiazole-6-carboxylic acid] |
| < 50 | N#Cc1ccc(OCc2nc(C3=CCN(Cc4nc5ccc(C(=O)O)cc5n4C[C@@H]4CCO4)C3)ccc2F)c(F)c1 [Compound 408, 2-[(3-{6-[(4-cyano-2-fluorophenoxy)methyl]-5-fluoropyridin-2-yl}-2,5-dihydro-1H-pyrrol-1-yl)methyl]-1-{[(2S)-oxetan-2-yl]methyl}-1H-1,3-benzodiazole-6-carboxylic acid] |
| < 50 | N#Cc1ccc(OCc2nc(C3CCN(Cc4nc5ccc(C(=O)O)cc5n4C[C@@H]4CCO4)C3)ccc2F)c(F)c1 (stereo partly drawn) [Compound 410, 2-[(3-{6-[(4-cyano-2-fluorophenoxy)methyl]-5-fluoropyridin-2-yl}pyrrolidin-1-yl)methyl]-1-{[(2S)-oxetan-2-yl]methyl}-1H-1,3-benzodiazole-6-carboxylic acid] |
| < 50 | O=C(O)c1cc(F)c2nc(CN3CC=C(c4ccc(F)c(COc5ccc(Cl)cc5F)n4)C3)n(C[C@@H]3CCO3)c2c1 [Compound 413, 2-[(3-{6-[(4-chloro-2-fluorophenoxy)methyl]-5-fluoropyridin-2-yl}-2,5-dihydro-1H-pyrrol-1-yl)methyl]-4-fluoro-1-{[(2S)-oxetan-2-yl]methyl}-1H-1,3-benzodiazole-6-carboxylic acid] |
| < 50 | N#Cc1ccc(OCc2nc(C3=CCN(Cc4nc5c(F)cc(C(=O)O)cc5n4CC4(CF)CC4)C3)ccc2F)c(F)c1 [Compound 416, 2-[(3-{6-[(4-cyano-2-fluorophenoxy)methyl]-5-fluoropyridin-2-yl}-2,5-dihydro-1H-pyrrol-1-yl)methyl]-4-fluoro-1-{[1-(fluoromethyl)cyclopropyl]methyl)-1H-1,3-benzodiazole-6-carboxylic acid] |
| < 50 | N#Cc1ccc(OCc2nc(C3=CCN(Cc4nc5c(F)cc(C(=O)O)cc5n4C[C@@H]4CCO4)C3)ccc2F)c(F)c1 [Compound 421, 2-[(3-{6-[(4-cyano-2-fluorophenoxy)methyl]-5-fluoropyridin-2-yl}-2,5-dihydro-1H-pyrrol-1-yl)methyl]-4-fluoro-1-{[(2S)-oxetan-2-yl]methyl}-1H-1,3-benzodiazole-6-carboxylic acid] |
| < 50 | N#CCC1(Cn2c(CN3CC=C(c4ccc(F)c(COc5ccc(C#N)cc5F)n4)C3)nc3ccc(C(=O)O)cc32)CC1 [Compound 422, 2-[(3-{6-[(4-cyano-2-fluorophenoxy)methyl]-5-fluoropyridin-2-yl}-2,5-dihydro-1H-pyrrol-1-yl)methyl]-1-{[l-(cyanomethyl)cyclopropyl]methyl}-1H-1,3-benzodiazole-6-carboxylic acid] |
| 50 to 500 | N#Cc1ccc(OCc2nc(C3=CCN(Cc4nc5ccc(C(=O)O)cc5n4CC4(CC(N)=O)CC4)C3)ccc2F)c(F)c1 [Compound 423, 1-{[1-(carbamoylmethyl)cyclopropyl]methyl}-2-[(3-{6-[(4-cyano-2-fluorophenoxy)methyl]-5-fluoropyridin-2-yl}-2,5-dihydro-1H-pyrrol-1-yl)methyl]-1H-1,3-benzodiazole-6-carboxylic acid] |
| < 50 | N#CCC1(Cn2c(CN3CC=C(c4ccc(F)c(COc5ccc(C#N)cc5F)n4)C3)nc3c(F)cc(C(=O)O)cc32)CC1 [Compound 424, 2-[(3-{6-[(4-cyano-2-fluorophenoxy)methyl]-5-fluoropyridin-2-yl}-2,5-dihydro-1H-pyrrol-1-yl)methyl]-1-{[1-(cyanomethyl)cyclopropyl]methyl}-4-fluoro-1H-1,3-benzodiazole-6-carboxylic acid] |
| 50 to 500 | N#Cc1ccc(OCc2nc(C3=CCN(Cc4nc5c(F)cc(C(=O)O)cc5n4CC4(CC(N)=O)CC4)C3)ccc2F)c(F)c1 [Compound 425, 1-{[1-(carbamoylmethyl)cyclopropyl]methyl}-2-[(3-{6-[(4-cyano-2-fluorophenoxy)methyl]-5-fluoropyridin-2-yl}-2,5-dihydro-1H-pyrrol-1-yl)methyl]-4-fluoro-1H-1,3-benzodiazole-6-carboxylic acid] |
| 50 to 500 | O=C(O)c1ccc2nc(CN3CC=C(c4cccc(COc5ccc(Cl)cc5F)c4F)C3)n(C[C@@H]3CCO3)c2c1 [Compound 426, 2-[(3-{3-[(4-chloro-2-fluorophenoxy)methyl]-2-fluorophenyl}-2,5-dihydro-1H-pyrrol-1-yl)methyl]-1-{[(2S)-oxetan-2-yl]methyl}-1H-1,3-benzodiazole-6-carboxylic acid] |
